Results published in BindingDB's records for doi:10.1021/jm00024a005 (National Institute of Diabetes and Digestive and Kidney …, 1996).
“And” between values parts separate entries of the source, which are not always exact repeats. Identical values can stand only once.

Assay: Ability to inhibit [3H](+)-pentazocine binding to guinea pig brain Sigma receptor type 1

SMILES | Ki
CN1CCC2(c3cccc(O)c3)CC(=O)C(=Cc3ccc4ccccc4c3)C1C2 (stereo not given) [5-(3-Hydroxy-phenyl)-2-methyl-8-[1-naphthalen-2-yl-meth-(E)-ylidene]-2-aza-bicyclo[3.3.1]nonan-7-one] | 16.6 nM
CN1CCC2(c3cccc(O)c3)CC(=O)C(=CC3CC3)C1C2 (stereo not given) [8-[1-Cyclopropyl-meth-(E)-ylidene]-5-(3-hydroxy-phenyl)-2-methyl-2-aza-bicyclo[3.3.1]nonan-7-one] | 62.3 nM
CN1CCC2(c3cccc(O)c3)CC(=O)C(=Cc3ccc(I)cc3)C1C2 (stereo not given) [5-(3-Hydroxy-phenyl)-8-[1-(4-iodo-phenyl)-meth-(E)-ylidene]-2-methyl-2-aza-bicyclo[3.3.1]nonan-7-one] | 1.71 nM
CN1CCC2(c3cccc(O)c3)CC(=O)C(=Cc3cccc(I)c3)C1C2 (stereo not given) [5-(3-Hydroxy-phenyl)-8-[1-(3-iodo-phenyl)-meth-(E)-ylidene]-2-methyl-2-aza-bicyclo[3.3.1]nonan-7-one] | 1.62 nM
COc1ccc(C=C2C(=O)CC3(c4cccc(O)c4)CCN(C)C2C3)cc1 (stereo not given) [5-(3-Hydroxy-phenyl)-8-[1-(4-methoxy-phenyl)-meth-(E)-ylidene]-2-methyl-2-aza-bicyclo[3.3.1]nonan-7-one] | 1.9 nM and 7.8 nM
